Assay results taken from ChEMBL document CHEMBL1201862, “PubChem BioAssay data set” (2004).
Activity calls are given as the source filed them.

What was measured:
[1] = target: Nuclear receptor subfamily 5 group A member 2 (Homo sapiens, UniProt O00482); assay type: functional, cell-based;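 note: HEK293T cells transfected with LRH-1 and a StAR promoter luciferase reporter; potency for inhibitors that lower LRH-1 driven reporter light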
[2] = target: Steroidogenic factor 1 (Homo sapiens, UniProt Q13285); assay: Counterscreen for inverse agonists of the liver receptor homolog-1 (LRH-1; NR5A2): Luminescence-based cell-based high throughput dose response assay to identify inverse agonists of the Steroidogenic Factor 1 Nuclear Receptor (SF1; NR5A1).; assay type: functional
[3] = StAR promoter reporter inhibition counter-screen, dose response, counter-screen for LRH-1 inverse agonist project, cell-based, luminescence, luciferase reporter (AID 651969); assay type: functional
[4] = tested on: INS1; assay: beta cell apoptosis inhibitors, cytokine rescue, dose response, luminescence, retest (AID 449756); assay type: functional, cell-based; conditions: Rattus norvegicus;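 note: cell death triggered by IL-1 beta plus TNF-alpha plus IFN-gamma mixture; protective hits raise ATP signal compared with cytokine alone wells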
[5] = Shn3 3'UTR reporter inhibitors, dose response, cell-based, Clone20 osteoblasts, firefly luciferase, cherry-picked (AID 624132); assay type: functional;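 note: firefly luciferase luminescence from reporter carrying the Shn3 3'UTR in osteoblasts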
[6] = control 3'UTR Renilla luciferase suppression, dose response, counter-screen for Shn3 inhibitor project, cell-based, Clone20-Shn3RL, cherry-picked (AID 624133); assay type: functional
[7] = target: Protein Wnt-3a (Mus musculus, UniProt P27467); assay: Wnt3a-driven reporter signaling inhibition, dose response, selectivity assay for Gli-SUFU antagonist project, Wnt-LIGHT cells, luminescence (AID 651570); assay type: functional; conditions: read-out: IC50_Mean;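 note: Wnt-LIGHT reporter cells stimulated with conditioned medium from Wnt3a-producing cells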
[8] = insulin promoter down-regulators in MIN6 cells, imaging, high-content screening, mouse beta cells (AID 1628); assay type: functional
[9] = cytotoxicity in MIN6 insulinoma cells, dose response, cytotoxicity control, cell-based, mouse insulinoma (AID 2122); assay type: functional;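 note: confirmatory high-throughput counterscreen run to flag cytotoxic compounds; mouse MIN-6 beta cells carrying an insulin promoter eGFP reporter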
[10] = HepG2 cell cytotoxicity, dose response, cytotoxicity control for Shn3 inhibitor project, CellTiter-Glo, cherry-picked (AID 624134); assay type: functional, cell-based
[11] = Luminescence Cell-Based Dose Retest to Confirm Inhibitors of Cancer Stem Cells. [Related pubchem assays (depositor defined):AID2717, AID2721]; assay type: functional; conditions: Homo sapiens
[12] = target: T1, Microphthalmia-associated transcription factor (Homo sapiens, UniProt O75030); assay: TRPM1 promoter luciferase signal decrease, dose response, MITF inhibitor project, cell-based, SK-MEL-5, cherry-picked, set 3 (AID 493073); assay type: functional
T1 sequence (O75030 whole entry): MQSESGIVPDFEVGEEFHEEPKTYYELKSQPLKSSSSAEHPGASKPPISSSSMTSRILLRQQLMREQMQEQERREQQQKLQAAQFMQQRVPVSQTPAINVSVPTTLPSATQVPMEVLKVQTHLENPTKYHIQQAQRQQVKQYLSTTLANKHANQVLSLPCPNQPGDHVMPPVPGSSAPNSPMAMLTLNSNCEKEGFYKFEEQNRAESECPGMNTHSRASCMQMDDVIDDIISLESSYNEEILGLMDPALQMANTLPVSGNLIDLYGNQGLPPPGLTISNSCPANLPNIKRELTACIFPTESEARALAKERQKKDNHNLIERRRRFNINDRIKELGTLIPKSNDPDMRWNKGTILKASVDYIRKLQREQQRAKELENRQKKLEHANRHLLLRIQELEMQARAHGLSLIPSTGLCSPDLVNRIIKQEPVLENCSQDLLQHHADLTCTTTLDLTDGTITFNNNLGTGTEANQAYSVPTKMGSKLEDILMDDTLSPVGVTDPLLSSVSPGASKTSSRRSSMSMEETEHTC

[13] = tested on: Vero; assay: cells; assay type: functional, cell-based; conditions: Chlorocebus sabaeus
[14] = tested on: A-375; assay: MITF: Counter assay: A375 proliferation Measured in Cell-Based System Using Plate Reader - 2084-03_Inhibitor_Dose_DryPowder_Activity. [Related pubchem assays (depositor defined):AID488944]; assay type: functional; conditions: Homo sapiens
[15] = tested on: Vero; assay: cells; assay type: functional; conditions: Chlorocebus sabaeus
[16] = tested on: HEK293; assay: cells; conditions: Homo sapiens
[17] = tested on: HEK293; assay: cells; conditions: Homo sapiens; remark: listed apart in the source
[18] = target: Induced myeloid leukemia cell differentiation protein Mcl-1 (Homo sapiens, UniProt Q07820); assay type: functional
[19] = target: T2, Mannose-6-phosphate isomerase (Homo sapiens, UniProt P34949); assay: human PMI inhibitors, high substrate, primary screen, biochemical, fluorescence intensity, high mannose 6-phosphate (AID 1220)
T2 sequence (P34949 whole entry): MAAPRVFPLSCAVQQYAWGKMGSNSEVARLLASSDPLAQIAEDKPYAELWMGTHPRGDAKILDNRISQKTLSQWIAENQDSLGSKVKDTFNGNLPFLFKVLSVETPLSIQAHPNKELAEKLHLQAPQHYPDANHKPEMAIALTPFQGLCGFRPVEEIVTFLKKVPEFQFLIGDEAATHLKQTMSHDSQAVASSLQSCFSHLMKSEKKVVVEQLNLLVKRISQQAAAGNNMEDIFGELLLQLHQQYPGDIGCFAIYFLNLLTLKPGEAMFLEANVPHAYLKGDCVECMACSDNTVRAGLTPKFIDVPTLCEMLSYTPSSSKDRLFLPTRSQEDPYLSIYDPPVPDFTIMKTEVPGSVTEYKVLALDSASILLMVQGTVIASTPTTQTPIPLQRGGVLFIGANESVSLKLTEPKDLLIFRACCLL

[20] = target: Glucose-6-phosphate 1-dehydrogenase (Homo sapiens, UniProt P11413); assay: human G6PD enzyme inhibitors, dose response, selectivity assay for P. falciparum G6PD inhibitor project, biochemical, fluorescence (AID 504792); assay type: functional
[21] = target: Eukaryotic translation initiation factor 4E (Mus musculus, UniProt P63073); assay: eIF4E–eIF4G protein interaction inhibitors, dose response, biochemical, TR-FRET (AID 855); assay type: functional;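 note: potency for disrupting eIF4E binding to eIF4GI seen as loss of FRET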
[22] = target: Nonstructural protein 1 (Influenza A virus, UniProt Q194T2); assay type: functional, Influenza A virus (A/California/07/2009(H1N1))
[23] = tested on: Vero; assay: Vero cell cytotoxicity, cytotoxicity control for flavivirus capping enzyme inhibitors (AID 588742); assay type: functional; conditions: Chlorocebus sabaeus
[24] = target: T3, Apoptotic protease-activating factor 1 (Homo sapiens, UniProt O14727); assay type: functional
T3 sequence (O14727 whole entry): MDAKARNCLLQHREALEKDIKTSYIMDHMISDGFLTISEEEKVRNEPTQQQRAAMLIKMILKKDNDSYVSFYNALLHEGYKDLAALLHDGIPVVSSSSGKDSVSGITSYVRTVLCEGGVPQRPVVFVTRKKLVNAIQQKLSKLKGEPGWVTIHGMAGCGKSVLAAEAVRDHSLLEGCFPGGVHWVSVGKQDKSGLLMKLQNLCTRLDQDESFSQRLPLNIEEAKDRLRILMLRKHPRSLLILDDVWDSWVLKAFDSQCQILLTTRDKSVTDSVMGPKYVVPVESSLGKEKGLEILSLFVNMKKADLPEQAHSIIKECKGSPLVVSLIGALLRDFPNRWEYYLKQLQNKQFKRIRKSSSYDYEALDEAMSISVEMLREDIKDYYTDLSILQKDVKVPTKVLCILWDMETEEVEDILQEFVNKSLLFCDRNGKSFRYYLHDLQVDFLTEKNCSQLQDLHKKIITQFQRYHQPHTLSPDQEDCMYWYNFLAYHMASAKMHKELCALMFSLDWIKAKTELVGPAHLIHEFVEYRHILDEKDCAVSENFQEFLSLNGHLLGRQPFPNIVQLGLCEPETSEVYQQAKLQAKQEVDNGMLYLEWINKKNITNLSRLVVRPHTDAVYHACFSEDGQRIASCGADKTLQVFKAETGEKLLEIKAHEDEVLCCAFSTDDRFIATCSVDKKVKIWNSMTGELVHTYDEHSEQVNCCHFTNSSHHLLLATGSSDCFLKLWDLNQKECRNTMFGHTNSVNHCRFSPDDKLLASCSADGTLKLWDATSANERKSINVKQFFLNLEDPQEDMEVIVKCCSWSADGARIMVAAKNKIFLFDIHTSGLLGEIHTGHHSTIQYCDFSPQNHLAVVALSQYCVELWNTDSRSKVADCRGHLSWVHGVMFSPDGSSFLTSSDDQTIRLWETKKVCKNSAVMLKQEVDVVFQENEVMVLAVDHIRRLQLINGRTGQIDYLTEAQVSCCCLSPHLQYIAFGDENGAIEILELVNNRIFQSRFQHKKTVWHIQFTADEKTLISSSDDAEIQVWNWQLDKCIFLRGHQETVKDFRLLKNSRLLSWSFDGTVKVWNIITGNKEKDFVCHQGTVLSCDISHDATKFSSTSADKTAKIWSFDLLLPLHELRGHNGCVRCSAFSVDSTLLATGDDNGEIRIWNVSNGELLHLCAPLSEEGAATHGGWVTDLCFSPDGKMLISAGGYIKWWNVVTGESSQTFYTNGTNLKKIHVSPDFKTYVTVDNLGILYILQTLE

[25] = target: Genome polyprotein (dengue virus type 2, UniProt P29990); assay: Dengue-2 NS5 methyltransferase inhibitors, primary screen, biochemical, confirmation dose response (AID 588689); assay type: functional
Genome polyprotein, sequence (P29990 2492-3391 limits assumed): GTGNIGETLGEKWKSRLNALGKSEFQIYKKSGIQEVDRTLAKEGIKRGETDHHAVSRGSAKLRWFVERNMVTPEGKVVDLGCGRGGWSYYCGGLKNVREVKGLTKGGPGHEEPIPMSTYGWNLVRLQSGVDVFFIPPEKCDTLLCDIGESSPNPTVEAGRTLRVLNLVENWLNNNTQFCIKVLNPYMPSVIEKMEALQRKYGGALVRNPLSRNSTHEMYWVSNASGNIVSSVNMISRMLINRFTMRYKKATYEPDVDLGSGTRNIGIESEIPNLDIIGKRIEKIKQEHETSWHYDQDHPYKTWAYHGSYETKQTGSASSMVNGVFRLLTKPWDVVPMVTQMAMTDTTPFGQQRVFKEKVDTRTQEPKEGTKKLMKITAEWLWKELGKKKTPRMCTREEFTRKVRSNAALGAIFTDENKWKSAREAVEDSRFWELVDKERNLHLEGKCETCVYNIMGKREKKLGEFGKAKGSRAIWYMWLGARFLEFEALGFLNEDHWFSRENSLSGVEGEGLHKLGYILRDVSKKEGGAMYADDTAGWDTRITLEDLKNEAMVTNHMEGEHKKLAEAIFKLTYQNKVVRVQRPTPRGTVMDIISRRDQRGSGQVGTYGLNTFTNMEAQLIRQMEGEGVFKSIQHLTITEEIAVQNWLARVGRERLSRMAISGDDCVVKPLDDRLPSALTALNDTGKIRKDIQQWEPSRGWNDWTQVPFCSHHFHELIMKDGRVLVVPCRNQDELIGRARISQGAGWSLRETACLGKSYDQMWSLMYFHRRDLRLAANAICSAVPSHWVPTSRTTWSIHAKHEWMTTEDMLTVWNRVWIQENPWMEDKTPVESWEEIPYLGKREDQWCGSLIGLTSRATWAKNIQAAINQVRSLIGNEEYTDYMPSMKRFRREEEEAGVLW

Protein Wnt-3a, sequence (P27467 whole entry): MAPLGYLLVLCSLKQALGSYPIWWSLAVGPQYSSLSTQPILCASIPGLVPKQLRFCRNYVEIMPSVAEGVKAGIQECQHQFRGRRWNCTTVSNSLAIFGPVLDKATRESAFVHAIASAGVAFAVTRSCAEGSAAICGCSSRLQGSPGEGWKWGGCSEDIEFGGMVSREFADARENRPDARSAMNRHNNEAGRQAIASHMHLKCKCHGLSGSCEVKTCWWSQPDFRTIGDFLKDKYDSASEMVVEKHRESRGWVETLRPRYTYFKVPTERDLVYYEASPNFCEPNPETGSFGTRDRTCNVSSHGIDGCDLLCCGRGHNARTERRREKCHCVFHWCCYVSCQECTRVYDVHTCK
Induced myeloid leukemia cell differentiation protein Mcl-1, sequence (Q07820 whole entry): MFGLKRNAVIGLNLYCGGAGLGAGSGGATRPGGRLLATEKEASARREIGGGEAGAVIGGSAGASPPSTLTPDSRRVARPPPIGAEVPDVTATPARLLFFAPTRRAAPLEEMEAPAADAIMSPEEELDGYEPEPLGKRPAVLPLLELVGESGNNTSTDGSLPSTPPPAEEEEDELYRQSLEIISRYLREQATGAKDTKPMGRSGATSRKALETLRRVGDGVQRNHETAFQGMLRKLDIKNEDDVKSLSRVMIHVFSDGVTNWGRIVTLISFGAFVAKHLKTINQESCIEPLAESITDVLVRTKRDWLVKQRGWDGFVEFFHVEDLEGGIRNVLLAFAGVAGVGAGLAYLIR
Glucose-6-phosphate 1-dehydrogenase, sequence (P11413 whole entry): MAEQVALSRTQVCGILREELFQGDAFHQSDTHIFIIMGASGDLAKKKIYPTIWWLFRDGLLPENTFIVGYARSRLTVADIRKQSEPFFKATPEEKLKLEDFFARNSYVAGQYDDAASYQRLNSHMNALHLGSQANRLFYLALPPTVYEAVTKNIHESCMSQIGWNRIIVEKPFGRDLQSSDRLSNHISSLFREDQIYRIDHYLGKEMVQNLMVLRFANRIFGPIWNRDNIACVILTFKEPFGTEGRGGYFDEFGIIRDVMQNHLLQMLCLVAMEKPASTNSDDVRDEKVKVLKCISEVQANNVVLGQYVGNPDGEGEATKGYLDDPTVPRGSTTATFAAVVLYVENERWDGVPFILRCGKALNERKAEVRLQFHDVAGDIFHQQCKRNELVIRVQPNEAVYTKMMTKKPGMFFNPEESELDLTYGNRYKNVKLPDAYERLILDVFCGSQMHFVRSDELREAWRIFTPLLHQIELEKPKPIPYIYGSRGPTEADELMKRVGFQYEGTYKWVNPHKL
Steroidogenic factor 1, sequence (Q13285 whole entry): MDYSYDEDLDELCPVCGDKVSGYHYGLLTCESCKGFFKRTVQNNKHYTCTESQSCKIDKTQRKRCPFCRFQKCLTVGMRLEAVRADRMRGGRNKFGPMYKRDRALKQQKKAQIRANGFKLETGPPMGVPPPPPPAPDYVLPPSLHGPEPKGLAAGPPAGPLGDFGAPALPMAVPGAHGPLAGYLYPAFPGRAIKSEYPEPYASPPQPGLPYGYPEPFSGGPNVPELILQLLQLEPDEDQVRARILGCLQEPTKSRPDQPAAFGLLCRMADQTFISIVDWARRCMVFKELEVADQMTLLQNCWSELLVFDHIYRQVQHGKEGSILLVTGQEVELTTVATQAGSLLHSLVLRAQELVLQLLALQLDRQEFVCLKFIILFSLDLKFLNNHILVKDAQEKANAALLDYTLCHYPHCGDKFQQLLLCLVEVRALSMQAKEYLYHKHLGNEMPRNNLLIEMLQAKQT
Eukaryotic translation initiation factor 4E, sequence (P63073 whole entry): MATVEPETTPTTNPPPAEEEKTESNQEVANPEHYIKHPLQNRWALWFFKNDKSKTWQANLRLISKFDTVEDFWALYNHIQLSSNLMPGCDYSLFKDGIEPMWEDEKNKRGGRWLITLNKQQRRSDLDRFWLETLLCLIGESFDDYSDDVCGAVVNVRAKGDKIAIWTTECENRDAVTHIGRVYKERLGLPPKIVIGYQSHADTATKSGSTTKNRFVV
Nonstructural protein 1, sequence (Q194T2 whole entry): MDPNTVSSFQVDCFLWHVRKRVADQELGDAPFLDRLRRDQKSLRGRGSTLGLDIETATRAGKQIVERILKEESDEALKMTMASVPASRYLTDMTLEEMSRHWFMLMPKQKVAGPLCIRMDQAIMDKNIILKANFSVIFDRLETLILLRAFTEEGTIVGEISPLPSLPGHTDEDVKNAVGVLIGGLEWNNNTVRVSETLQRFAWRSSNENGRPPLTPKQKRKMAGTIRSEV
Nuclear receptor subfamily 5 group A member 2, sequence (O00482 whole entry): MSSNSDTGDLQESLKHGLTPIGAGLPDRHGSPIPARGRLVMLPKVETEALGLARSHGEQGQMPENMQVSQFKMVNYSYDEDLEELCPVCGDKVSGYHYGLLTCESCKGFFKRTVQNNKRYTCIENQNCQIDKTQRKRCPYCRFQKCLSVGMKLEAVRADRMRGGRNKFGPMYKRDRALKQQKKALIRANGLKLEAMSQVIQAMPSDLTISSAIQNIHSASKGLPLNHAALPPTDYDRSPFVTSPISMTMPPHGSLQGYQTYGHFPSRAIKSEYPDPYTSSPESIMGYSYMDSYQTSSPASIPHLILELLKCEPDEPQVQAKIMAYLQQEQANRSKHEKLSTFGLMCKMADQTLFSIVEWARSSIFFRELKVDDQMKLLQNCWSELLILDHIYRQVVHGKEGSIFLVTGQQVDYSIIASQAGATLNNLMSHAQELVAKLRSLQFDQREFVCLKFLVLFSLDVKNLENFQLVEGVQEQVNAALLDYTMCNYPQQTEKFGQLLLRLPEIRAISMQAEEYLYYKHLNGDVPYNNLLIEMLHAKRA

With COc1cccc(NC(=O)c2oc3ccccc3c2NC(=O)C2CC2)c1 the IC50 [1] was 35.9 µM (inactive), the IC50 [2] was 16 µM (inactive) and the IC50 [3] was 35.9 µM (inactive).

For CCn1c(C)nc2cc(-c3nnc(-c4c(-c5ccccc5)noc4C)o3)ccc21, the AC50 [4] was 5.72 µM (active), the AC50 [5] was 5.82 µM (active) and the AC50 [6] was 5.96 µM (active). For the same compound, the IC50 [7] was 2.59 µM (active).

With O=C(c1cc2sccc2n1Cc1ccccc1)N1CCN(c2nc3ccccc3s2)CC1 the IC50 [8] was 0.735 µM (active), the IC50 [9] was 0.779 µM (active) and the AC50 [4] was 3.56 µM (active). For the same compound, the AC50 [5] was 1.09 µM (active), the AC50 [10] was 2.92 µM (active) and the AC50 [6] was 0.453 µM (active). The IC50 [7] was 2.68 µM (active).

In the case of N#C/C(=C\C=C\c1ccccc1[N+](=O)[O-])C(=O)NC1CCCCC1, the AC50 [11] is reported as 5.33 µM (active), the AC50 [12] is reported as 7.8 µM (active) and the IC50 [13] is reported as 17 µM (active). For the same compound, the AC50 [14] was 25.9 µM (active), the CC50 [15] was > 25 µM (active) and the EC50 [16] was > 59.7 µM (inactive). The EC50 [17] was > 59.7 µM (inactive).

For CCOc1cc(CNc2ccc(N3CCCC3)cc2)cc(Cl)c1OC, the IC50 [18] was 2.43 µM (not active), the IC50 [19] was 8.91 µM (active) and the IC50 [20] was > 80 µM (inactive). For the same compound, the IC50 [21] was > 64 µM (inactive), the IC50 [22] was 20.7 µM (active) and the CC50 [23] was > 40 µM (active). The IC50 [24] was > 100 µM (inactive) and the IC50 [25] was 48.2 µM (active).
